ChEMBL document CHEMBL5370605, “Discovery of Novel Fedratinib-Based HDAC/JAK/BRD4 Triple Inhibitors with Remarkable Antitumor Activity against Triple Negative Breast Cancer” (J Med Chem, 2023)
pIC50: −log10 of the molar value.

How the values were obtained:
Histone deacetylase 11 = target: T1, Histone deacetylase 11 (Homo sapiens, UniProt Q96DB2); experiment: Inhibition of HDAC11 (unknown origin) using Ac-ETDKrnyr-AMC as substrate incubated for 30 mins by fluorescence based analysis
T1 sequence (Q96DB2 whole entry): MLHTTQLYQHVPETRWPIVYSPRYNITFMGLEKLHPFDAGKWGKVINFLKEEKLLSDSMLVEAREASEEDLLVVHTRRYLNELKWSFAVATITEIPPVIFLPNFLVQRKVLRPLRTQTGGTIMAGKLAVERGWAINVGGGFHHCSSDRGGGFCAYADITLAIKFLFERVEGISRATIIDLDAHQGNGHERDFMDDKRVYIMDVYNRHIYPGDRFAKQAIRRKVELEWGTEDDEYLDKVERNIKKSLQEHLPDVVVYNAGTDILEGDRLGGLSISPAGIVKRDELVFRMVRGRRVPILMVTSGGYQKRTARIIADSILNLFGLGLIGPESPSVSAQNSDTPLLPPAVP

[1] = Half life in ICR (CD-1) mouse at 50 mg/kg, ip measured for 24 hrs by LC-MS/MS analysis; format: ADME, organism-based; settings: in vivo
[2] = Cmax in ICR (CD-1) mouse at 10 mg/kg, iv measured for 24 hrs by LC-MS/MS analysis; format: ADME, organism-based; design: time 24 hrs, dose 10 mg/kg, route iv; settings: in vivo
[3] = MRT (0 to t) in ICR (CD-1) mouse at 10 mg/kg, iv measured for 24 hrs by LC-MS/MS analysis; format: ADME, organism-based; settings: in vivo
[4] = target: Tyrosine-protein kinase JAK2 (Homo sapiens, UniProt O60674); experiment: Inhibition of JAK2 (unknown origin) incubated for 40 mins in presence of ATP by Kinase-glo luminescent assay
Chain of Tyrosine-protein kinase JAK2 (O60674 whole entry): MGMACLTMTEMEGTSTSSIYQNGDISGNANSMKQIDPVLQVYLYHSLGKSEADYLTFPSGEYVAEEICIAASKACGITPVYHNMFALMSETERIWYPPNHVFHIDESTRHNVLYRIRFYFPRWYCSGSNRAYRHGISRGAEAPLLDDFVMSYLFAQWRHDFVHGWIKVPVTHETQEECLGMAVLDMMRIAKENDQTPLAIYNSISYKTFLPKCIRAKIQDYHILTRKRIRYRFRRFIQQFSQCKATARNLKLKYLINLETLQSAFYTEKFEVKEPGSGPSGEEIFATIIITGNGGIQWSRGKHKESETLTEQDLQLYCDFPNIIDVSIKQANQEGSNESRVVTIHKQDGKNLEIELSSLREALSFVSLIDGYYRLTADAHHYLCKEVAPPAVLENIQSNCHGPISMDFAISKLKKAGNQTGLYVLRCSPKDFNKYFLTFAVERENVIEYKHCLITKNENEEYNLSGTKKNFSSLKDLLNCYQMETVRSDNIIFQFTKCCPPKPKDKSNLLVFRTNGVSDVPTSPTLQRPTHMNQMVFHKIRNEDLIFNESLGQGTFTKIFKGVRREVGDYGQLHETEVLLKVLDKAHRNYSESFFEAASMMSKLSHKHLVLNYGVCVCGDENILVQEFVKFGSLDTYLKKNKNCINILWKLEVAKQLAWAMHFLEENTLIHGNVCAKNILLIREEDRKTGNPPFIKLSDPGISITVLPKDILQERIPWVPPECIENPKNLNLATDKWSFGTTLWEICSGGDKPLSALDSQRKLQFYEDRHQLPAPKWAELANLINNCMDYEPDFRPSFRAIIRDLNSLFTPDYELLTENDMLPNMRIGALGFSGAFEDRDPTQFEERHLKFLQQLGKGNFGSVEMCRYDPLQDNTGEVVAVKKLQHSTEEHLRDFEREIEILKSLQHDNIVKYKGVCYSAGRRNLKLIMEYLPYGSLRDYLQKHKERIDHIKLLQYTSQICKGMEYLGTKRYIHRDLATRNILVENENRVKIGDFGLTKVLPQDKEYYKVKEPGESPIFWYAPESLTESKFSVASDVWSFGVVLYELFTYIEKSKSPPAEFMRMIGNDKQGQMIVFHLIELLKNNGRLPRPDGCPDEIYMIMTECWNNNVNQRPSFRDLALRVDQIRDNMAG

[5] = target: Non-receptor tyrosine-protein kinase TYK2 (Homo sapiens, UniProt P29597); experiment: Inhibition of TYK2 (unknown origin) incubated for 40 mins in presence of ATP by Kinase-glo luminescent assay
Chain of Non-receptor tyrosine-protein kinase TYK2 (P29597 whole entry): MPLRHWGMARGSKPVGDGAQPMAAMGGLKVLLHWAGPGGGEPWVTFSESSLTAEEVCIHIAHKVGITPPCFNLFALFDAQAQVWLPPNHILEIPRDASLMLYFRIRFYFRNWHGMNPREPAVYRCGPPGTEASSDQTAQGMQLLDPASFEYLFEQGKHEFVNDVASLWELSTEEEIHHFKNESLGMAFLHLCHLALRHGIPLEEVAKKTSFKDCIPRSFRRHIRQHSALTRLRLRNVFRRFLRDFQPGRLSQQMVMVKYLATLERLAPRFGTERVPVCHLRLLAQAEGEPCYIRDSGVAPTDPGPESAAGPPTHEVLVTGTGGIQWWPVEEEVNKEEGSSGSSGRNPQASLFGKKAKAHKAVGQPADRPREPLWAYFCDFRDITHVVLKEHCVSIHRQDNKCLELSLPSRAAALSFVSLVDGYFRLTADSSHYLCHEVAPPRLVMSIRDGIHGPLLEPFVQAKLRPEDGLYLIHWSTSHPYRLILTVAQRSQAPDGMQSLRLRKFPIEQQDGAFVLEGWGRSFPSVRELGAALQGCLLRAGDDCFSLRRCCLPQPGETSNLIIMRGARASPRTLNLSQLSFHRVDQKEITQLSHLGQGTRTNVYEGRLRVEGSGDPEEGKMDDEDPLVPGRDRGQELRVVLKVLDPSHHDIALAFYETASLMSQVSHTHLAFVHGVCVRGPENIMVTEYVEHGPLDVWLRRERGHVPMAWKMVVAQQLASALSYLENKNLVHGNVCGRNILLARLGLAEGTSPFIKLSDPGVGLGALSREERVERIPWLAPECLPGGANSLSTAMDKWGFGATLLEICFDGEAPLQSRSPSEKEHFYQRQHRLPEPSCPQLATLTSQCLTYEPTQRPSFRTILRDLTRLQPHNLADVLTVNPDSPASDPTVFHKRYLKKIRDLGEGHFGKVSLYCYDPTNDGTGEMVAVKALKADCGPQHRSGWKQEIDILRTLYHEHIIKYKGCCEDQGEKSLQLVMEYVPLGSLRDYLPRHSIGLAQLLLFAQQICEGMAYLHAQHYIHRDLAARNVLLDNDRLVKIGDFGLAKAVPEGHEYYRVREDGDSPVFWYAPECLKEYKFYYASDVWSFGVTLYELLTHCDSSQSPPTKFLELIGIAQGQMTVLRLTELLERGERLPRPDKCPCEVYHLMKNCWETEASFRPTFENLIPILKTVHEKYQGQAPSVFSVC

Histone deacetylase 8 = target: T2, Histone deacetylase 8 (Homo sapiens, UniProt Q9BY41); experiment: Inhibition of HDAC8 (unknown origin) using Boc-Lys-(trifluoroacetyl)-AMC as substrate incubated for 30 mins by fluorescence based analysis
T2 sequence (Q9BY41 whole entry): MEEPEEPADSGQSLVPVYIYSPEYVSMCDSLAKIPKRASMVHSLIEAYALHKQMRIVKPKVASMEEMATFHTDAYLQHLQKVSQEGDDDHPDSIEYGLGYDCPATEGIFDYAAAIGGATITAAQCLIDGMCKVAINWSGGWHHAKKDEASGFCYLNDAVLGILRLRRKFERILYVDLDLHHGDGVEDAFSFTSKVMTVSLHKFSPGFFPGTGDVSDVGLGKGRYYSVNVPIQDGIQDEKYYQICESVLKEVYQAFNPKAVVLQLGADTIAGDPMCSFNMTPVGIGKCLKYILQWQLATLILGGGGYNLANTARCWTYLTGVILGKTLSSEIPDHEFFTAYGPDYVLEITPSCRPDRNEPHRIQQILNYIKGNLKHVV

Histone deacetylase 4 = Histone deacetylase 4 (Homo sapiens, UniProt P56524); experiment: Inhibition of HDAC4 (unknown origin) using Boc-Lys-(trifluoroacetyl)-AMC as substrate incubated for 30 mins by fluorescence based analysis
Chain of Histone deacetylase 4 (P56524 whole entry): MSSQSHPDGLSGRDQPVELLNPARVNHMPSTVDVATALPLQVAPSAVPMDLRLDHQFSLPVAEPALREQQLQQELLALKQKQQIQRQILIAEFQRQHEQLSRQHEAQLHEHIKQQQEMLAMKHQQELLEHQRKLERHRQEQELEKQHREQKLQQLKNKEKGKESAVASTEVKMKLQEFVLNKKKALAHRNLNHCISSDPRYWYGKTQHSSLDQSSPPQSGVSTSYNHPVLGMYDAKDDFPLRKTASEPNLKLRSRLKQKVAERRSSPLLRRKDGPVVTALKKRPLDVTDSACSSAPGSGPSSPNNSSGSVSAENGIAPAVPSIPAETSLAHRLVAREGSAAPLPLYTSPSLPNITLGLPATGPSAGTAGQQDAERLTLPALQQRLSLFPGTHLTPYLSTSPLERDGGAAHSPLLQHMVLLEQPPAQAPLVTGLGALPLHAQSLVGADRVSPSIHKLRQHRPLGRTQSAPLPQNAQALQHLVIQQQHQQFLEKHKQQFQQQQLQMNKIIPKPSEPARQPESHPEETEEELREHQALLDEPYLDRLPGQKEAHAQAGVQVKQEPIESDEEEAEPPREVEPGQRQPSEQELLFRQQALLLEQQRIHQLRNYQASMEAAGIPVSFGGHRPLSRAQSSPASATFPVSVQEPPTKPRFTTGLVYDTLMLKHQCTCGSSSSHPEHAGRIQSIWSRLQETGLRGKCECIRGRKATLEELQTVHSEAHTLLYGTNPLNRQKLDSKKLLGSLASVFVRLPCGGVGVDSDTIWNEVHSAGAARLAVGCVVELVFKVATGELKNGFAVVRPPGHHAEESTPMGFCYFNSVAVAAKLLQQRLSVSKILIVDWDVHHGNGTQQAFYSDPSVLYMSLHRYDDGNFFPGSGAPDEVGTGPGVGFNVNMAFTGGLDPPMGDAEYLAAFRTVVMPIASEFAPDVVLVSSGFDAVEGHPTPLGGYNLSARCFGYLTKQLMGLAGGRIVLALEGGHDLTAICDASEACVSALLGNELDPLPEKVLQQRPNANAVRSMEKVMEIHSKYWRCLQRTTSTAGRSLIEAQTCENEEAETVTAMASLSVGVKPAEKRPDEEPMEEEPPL

[6] = Tmax in ICR (CD-1) mouse at 50 mg/kg, ip measured for 24 hrs by LC-MS/MS analysis; format: ADME, organism-based; settings: in vivo
[7] = AUC (0 to t) in ICR (CD-1) mouse at 50 mg/kg, ip measured for 24 hrs by LC-MS/MS analysis; format: ADME, organism-based; design: dose 50 mg/kg, time 24 hrs, route ip; settings: in vivo
[8] = Metabolic stability in mouse liver microsomes assessed as half life in presence of NADPH by LC-MS/MS analysis; format: ADME, Microsome
[9] = Toxicity in athymic BALB/c nude mouse xenografted with human MDA-MB-231 cells assessed as reduction in body weight at 25 to 50 mg/kg/day, ip administered for 28 consecutive days; format: organism-based; settings: in vivo, 672 h, dose 25-50 mg/kg/day, time 28 day
[10] = target: Proto-oncogene tyrosine-protein kinase receptor Ret (Homo sapiens, UniProt P07949); experiment: Inhibition of RET (unknown origin) incubated for 40 mins in presence of ATP by Kinase-glo luminescent assay
Chain of Proto-oncogene tyrosine-protein kinase receptor Ret (P07949 whole entry): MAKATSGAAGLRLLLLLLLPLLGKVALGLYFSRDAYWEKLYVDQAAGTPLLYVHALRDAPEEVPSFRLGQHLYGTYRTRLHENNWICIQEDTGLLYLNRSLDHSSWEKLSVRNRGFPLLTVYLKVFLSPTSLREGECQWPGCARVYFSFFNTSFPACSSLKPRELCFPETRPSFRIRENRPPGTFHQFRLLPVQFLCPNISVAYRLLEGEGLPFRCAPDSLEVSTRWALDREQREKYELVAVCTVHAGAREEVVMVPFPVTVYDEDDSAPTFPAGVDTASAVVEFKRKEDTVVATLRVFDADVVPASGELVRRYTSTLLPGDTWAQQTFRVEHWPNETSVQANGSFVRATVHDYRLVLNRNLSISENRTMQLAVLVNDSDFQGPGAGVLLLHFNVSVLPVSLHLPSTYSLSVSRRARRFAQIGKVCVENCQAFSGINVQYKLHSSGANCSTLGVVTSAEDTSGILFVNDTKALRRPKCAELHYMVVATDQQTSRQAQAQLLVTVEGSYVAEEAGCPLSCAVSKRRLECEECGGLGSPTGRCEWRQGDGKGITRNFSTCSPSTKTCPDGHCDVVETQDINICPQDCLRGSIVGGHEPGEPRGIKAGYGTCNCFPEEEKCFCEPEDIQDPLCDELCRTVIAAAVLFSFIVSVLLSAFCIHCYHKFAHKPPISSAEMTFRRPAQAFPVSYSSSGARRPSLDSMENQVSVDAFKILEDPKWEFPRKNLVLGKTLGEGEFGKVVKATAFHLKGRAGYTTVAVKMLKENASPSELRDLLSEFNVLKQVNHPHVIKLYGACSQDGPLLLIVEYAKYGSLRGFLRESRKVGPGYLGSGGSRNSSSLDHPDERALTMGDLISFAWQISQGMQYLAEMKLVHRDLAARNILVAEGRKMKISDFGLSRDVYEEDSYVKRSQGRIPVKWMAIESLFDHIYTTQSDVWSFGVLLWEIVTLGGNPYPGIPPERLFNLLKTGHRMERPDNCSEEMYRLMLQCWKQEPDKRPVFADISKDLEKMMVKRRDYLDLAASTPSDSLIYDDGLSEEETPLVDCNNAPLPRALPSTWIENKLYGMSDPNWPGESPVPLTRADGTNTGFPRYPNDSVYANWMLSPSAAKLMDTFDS

[11] = target: T3, Protein deacetylase HDAC6 (Homo sapiens, UniProt Q9UBN7); experiment: Inhibition of HDAC6 (unknown origin) using Boc-Lys(Ac)-AMC as substrate incubated for 30 mins by fluorescence based analysis
T3 sequence (Q9UBN7 whole entry): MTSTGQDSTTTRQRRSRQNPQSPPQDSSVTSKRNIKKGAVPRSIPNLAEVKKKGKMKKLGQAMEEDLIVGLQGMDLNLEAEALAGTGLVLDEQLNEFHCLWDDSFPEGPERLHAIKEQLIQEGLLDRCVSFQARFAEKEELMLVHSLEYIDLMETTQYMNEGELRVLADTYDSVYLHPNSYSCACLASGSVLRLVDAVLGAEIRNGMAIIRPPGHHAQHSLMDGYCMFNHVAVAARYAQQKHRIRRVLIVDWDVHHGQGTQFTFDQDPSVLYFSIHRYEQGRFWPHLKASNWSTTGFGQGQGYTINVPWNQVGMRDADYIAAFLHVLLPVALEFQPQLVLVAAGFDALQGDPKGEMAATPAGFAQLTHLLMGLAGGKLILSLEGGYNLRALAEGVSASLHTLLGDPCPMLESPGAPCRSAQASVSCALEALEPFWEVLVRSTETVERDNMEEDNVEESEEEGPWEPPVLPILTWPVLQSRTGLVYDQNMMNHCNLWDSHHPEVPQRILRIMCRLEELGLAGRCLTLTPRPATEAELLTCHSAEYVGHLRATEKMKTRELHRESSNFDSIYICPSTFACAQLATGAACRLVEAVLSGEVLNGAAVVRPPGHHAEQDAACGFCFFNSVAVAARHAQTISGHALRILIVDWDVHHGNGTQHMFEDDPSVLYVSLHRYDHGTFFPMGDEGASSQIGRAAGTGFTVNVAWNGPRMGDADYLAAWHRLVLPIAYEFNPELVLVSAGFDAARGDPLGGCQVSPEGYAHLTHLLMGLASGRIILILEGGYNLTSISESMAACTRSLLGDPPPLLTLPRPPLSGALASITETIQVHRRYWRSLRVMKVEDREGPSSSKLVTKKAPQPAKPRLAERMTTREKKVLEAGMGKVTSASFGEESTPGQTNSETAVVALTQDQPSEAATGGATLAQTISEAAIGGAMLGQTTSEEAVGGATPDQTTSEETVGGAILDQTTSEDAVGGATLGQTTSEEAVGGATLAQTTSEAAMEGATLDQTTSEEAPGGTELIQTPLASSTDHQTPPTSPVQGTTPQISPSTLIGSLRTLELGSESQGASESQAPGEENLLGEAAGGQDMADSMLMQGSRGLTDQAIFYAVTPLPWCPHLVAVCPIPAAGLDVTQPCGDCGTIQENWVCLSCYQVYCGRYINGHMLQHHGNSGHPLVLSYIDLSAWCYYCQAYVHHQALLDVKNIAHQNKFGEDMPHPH

Cc1cnc(Nc2ccc(OCCN3CCCC3)cc2)nc1Nc1ccc(C(=O)NO)cc1
pIC50 (Histone deacetylase 11): < 5.30 | half-life [1]: 151 min | Cmax [2]: 4730 ng/mL | MRT(t) [3]: 99.6 min | pIC50 [4]: 8.74 | pIC50 [5]: 7.00 | pIC50 (Histone deacetylase 8): 6.80 | pIC50 (Histone deacetylase 4): < 5.30 | Tmax [6]: 11.4 min | AUC(0-t) at 24 h [7]: 14800 ng·h/mL | half-life [8]: 37.5 min | Activity [9]: Non-Toxic | pIC50 [10]: 7.33 | pIC50 [11]: 6.57
